These are literature values, as cited in publication PMC8448535 (Bioorganic & Medicinal Chemistry, 2021).

Structures can show the parent of a compound that is named as a salt.

Data set [1] deals with recombinant-human ACE (rhACE). To be noted: pIC50 of IC50 in mol/L.
The subject of data set [2] is recombinant-human ACE2 (rhACE2). To be noted: pIC50 of IC50 in mol/L.
A further data set deals with ACE2. To be noted: read-out: activity (inhibitory effect against ACE2).
For another data set, the system named is furin. To be noted: database screening of pre-existing drugs.
Another data set concerns influenza virus H3N2. To be noted: H3N2, 10 μM, at 24 h, compared to control.
Another data set has as its system cell viability. As to conditions: in words.

For `CC(C)C[C@@H](N[C@@H](Cc1cncn1Cc1cc(Cl)cc(Cl)c1)C(=O)O)C(=O)O` [MLN-4760-R], the pIC50 is 4.4 ± 0.3 mol/L in data set [1] and 8.9 ± 0.1 mol/L in data set [2].

Regarding `CC(C)CC(N[C@@H](Cc1cncn1Cc1cc(Cl)cc(Cl)c1)C(=O)O)C(=O)O` (stereo partly drawn) [MLN-4760-S/R], the pIC50 in data set [1] is 4.4 ± 0.2 mol/L; in data set [2], 8.5 ± 0.1 mol/L.

Take `NCCNCCN1CC1` [N-(2-aminoethyl)-1-aziridineethanamine]: the IC50 in the data set on ACE2 is 57 ± 7 µM.

As for `Nc1nc(N)c2nc(CNc3ccc(C(=O)N[C@@H](CCC(=O)O)C(=O)O)cc3)cnc2n1` [aminopterin], the affinity for furin result with furin is “good affinity”.

`CN(Cc1cc(Br)cc(Br)c1N)C1CCCCC1` [bromhexine]: the “activity towards TMPRSS2” value in the data set on TMPRSS2 was “good activity”.

Regarding `CN(C)C(=O)COC(=O)Cc1ccc(OC(=O)c2ccc(NC(=N)N)cc2)cc1` [camostat mesylate], the “block of SARS-CoV from entering cells” value in the data set on SARS-CoV is given as 65%.

In the case of `N=C(N)c1cccc(C[C@H](NS(=O)(=O)c2cccc(-c3ccc(Cl)cc3Cl)c2)C(=O)N2CCC(CCN)CC2)c1` [compound 92], the “decrease in virus titres” value with influenza virus H3N2 was 100 fold. Further, the “effect on cell viability” value in the data set on cell viability is listed as “little to no effect”.

`N=C(N)c1cccc(C[C@H](NS(=O)(=O)c2cccc(-c3ccc(Cl)cc3Cl)c2)C(=O)N2CCC(NC(=O)NC3CCCCC3)CC2)c1` [compound 114]: the “effect on cell viability” value in the data set with cell viability was “little to no effect”.

Regarding `N=C(N)c1ccc(/N=N/Nc2ccc(C(=N)N)cc2)cc1` [diminazene], the affinity for furin result in the data set with furin is “good affinity”.

Take `CN(Cc1cnc2nc(N)nc(N)c2n1)c1ccc(C(=O)N[C@@H](CCC(=O)O)C(=O)O)cc1` [methotrexate]: the affinity for furin result in the data set with furin is listed as “good affinity”.

For `COc1cc(C2Oc3cc([C@H]4Oc5cc(O)cc(O)c5C(=O)[C@@H]4O)ccc3OC2CO)ccc1O` (stereo partly drawn) [silybin], the affinity for furin entry with furin is reported as “good affinity”.

As for “angiotensin-III (RVYIHPF; Angiotensin 3; UniProt P01019 26-32, looked up) [Ang-III]”, the “vasopressor efficacy relative to Ang-II” value is 40%.
